We go through 101 compounds from ChEMBL document CHEMBL3507680, “University of Dundee, Gates Library screen for HepG2 cell viability”.

The structures appear in SMILES notation.

A short description of the data set: Human HepG2 cell viability assay in 384 well format. Type of data set: toxicity, cell-based. The arrangement: dose 125 nL, time 70.5 hour; concentration not given beside the values. Conditions: HepG2 cells, read-out: Inhibition.
Regarding `CCN1CC2(CCN(C(=O)N(C)C)CC2)COc2ccccc2S1(=O)=O`, the cytotoxicity at 70.5 h amounted to 4.83%.

As to `N#CCCCN1CCCC1Cc1ccccc1` (stereo unspecified), the cytotoxicity at 70.5 h is -3.84%.

With `CN(Cc1nccn1CC(F)(F)F)C(=O)c1cccc(C#N)c1`, the cytotoxicity at 70.5 h was -7.89%.

On to `CC(C)(C)OC(=O)N1CCC[C@H](NCc2cc[nH]c2)C1`, for which the cytotoxicity at 70.5 h was -11%.

Consider `Cc1cc(Cn2cc(C(C)Cc3ccc4c(c3)OCO4)nn2)n[nH]1` (stereo unspecified), for which the cytotoxicity at 70.5 h is -7.62%.

Take `CCCNCc1ccc(-c2cc(N)nc3[nH]ccc23)cc1`: the cytotoxicity at 70.5 h is -0.725%.

Consider `CN(C)CCN1Cc2ncn(C)c2C(COCC(=O)N(C)C)C1` (stereo unspecified), for which the cytotoxicity at 70.5 h was -8.47%.

Take `CC(C)(NCCCOc1ccc(C#N)cc1)c1nccs1`: the cytotoxicity at 70.5 h was -1.99%.

On to `CN(CC1CCCN(S(C)(=O)=O)C1)c1cnn(C)c1` (stereo unspecified), for which the cytotoxicity at 70.5 h is 18.9%.

Take `CCOCCCNC(=O)C(NC(=O)Cc1cccs1)c1ccc(C)cc1` (stereo unspecified): the cytotoxicity at 70.5 h was -2.89%.

Turning to `O=C(C(c1ccccc1)N1CCc2cncnc2C1)N1CCCCC1` (stereo unspecified), the cytotoxicity at 70.5 h is 7.48%.

`CCOc1ccnc(N2CCN(C(=O)c3c(CC)noc3C)CC2)n1`: the cytotoxicity at 70.5 h is -7.39%.

With `N#Cc1c(F)cccc1N1CCC(C(=O)Nc2nccs2)CC1`, the cytotoxicity at 70.5 h was -17.6%.

Turning to `Cc1ccc(OCCN2CCN(Cc3cnn(CCO)c3)CC2)cc1`, the cytotoxicity at 70.5 h was -0.0785%.

Consider `Cc1nc(C)n(C2CCCN(C(=O)c3csc(C)n3)C2)n1` (stereo unspecified), for which the cytotoxicity at 70.5 h is -5.49%.

In the case of `Cc1cc(C(F)(F)F)nc(CCNC(C)Cn2ccnc2)n1` (stereo unspecified), the cytotoxicity at 70.5 h was -23.4%.

Consider `COc1ccc(CNC[C@H]2Cn3ccnc3CO2)cn1`, for which the cytotoxicity at 70.5 h was -2.5%.

As to `O=C(C1=CCCC1)N1C[C@H](Oc2cccnc2)[C@H]2OCCC[C@H]21`, the cytotoxicity at 70.5 h was -4.92%.

As for `CCOc1ccc(C#N)cc1NC(=O)N1CCOC(C(N)=O)C1` (stereo unspecified), the cytotoxicity at 70.5 h is 23%.

For `Cc1ccc2c(c1)C(NC1CC1)CC21CCNCC1` (stereo unspecified), the cytotoxicity at 70.5 h is 11%.

On to `COc1ccc2[nH]c3c(c2c1)CN(c1cc(NCCO)nc(N)n1)CC3`, for which the cytotoxicity at 70.5 h is -3.57%.

For `COc1cc2cc(C(=O)NCCC(=O)O)n(C)c2c(OC)c1OC`, the cytotoxicity at 70.5 h was -4.76%.

For the compound `CC(=O)NC1CCCN(C(=O)CNc2cccc(C)c2Cl)C1` (stereo unspecified), the cytotoxicity at 70.5 h was determined as 21.2%.

Turning to `Cc1nc(CN2CCC3(CCCN(C(=O)c4cnccn4)C3)C2)cs1` (stereo unspecified), the cytotoxicity at 70.5 h was -2.34%.

Consider `CN1CC(=O)N(c2cccnc2)Cc2c(NC3CC3)ncnc21`, for which the cytotoxicity at 70.5 h is -0.235%.

Take `Cn1cnc2c1CCN(CCCc1ccccc1)C2`: the cytotoxicity at 70.5 h was -1.08%.

With `Cc1ccc(F)c(C(=O)Nc2cccc(CCN3CCCC3)c2)c1`, the cytotoxicity at 70.5 h was -1.18%.

Take `c1cnc(N2CCCC3(CCN(CC4CCC4)C3)C2)nc1` (stereo unspecified): the cytotoxicity at 70.5 h is -8.21%.

Take `CN(C)CC1(O)CCCN(C(=O)Cn2nc3ccccc3n2)CC1` (stereo unspecified): the cytotoxicity at 70.5 h amounted to 11.1%.

As to `CN(C)CCn1ccnc1C1CCCN(c2ncc(Cl)cc2F)C1` (stereo unspecified), the cytotoxicity at 70.5 h is -3.65%.

Turning to `COc1ccc([C@@H]2C[C@H](NC(C)=O)C[C@H](CCc3ccccc3)O2)cn1`, the cytotoxicity at 70.5 h was -4.78%.

As for `CC(C)c1nc(C2CCCN(C(=O)CN(C)S(C)(=O)=O)C2)no1` (stereo unspecified), the cytotoxicity at 70.5 h was 5.74%.

Take `CC(=O)N(Cc1noc(C2CC2)n1)C1CCN(Cc2ccccn2)C1` (stereo unspecified): the cytotoxicity at 70.5 h was -9.44%.

On to `COCC(C)NC(=O)CN1CCCC1` (stereo unspecified), for which the cytotoxicity at 70.5 h was -23.1%.

On to `CN1CCN(c2cc(CNC(=O)c3ccc(Cl)o3)ccn2)CC1`, for which the cytotoxicity at 70.5 h is -3.02%.

On to `COc1ccc(-c2noc(C3CC(C(C)C)=NO3)n2)cc1` (stereo unspecified), for which the cytotoxicity at 70.5 h is 1.77%.

With `Cc1cnc(N2CCC3(CCC(C(=O)NC(C)C)OC3)CC2)nc1` (stereo unspecified), the cytotoxicity at 70.5 h is -2.25%.

Take `Cn1nnc2c1CCN(S(C)(=O)=O)C2COCc1ccccc1` (stereo unspecified): the cytotoxicity at 70.5 h was found to be 13.6%.

For the compound `Cc1nc(CN(C)C2CCN(CCCOc3ccccc3)C2)no1` (stereo unspecified), the cytotoxicity at 70.5 h amounted to 39.5%.

On to `C1CCC(CNC2CCCN(Cc3noc(C4CC4)n3)C2)CC1` (stereo unspecified), for which the cytotoxicity at 70.5 h was -15.3%.

In the case of `CC(C)N1CCC(c2ccnc3c(C(=O)N4CCCC4)ncn23)CC1`, the cytotoxicity at 70.5 h was -3.82%.

In the case of `O=C(C1CCCN(Cc2ccccc2)C1)N1CCc2sccc2C1` (stereo unspecified), the cytotoxicity at 70.5 h was 31%.

Consider `CCOCc1ncn2c1CN(C(=O)Nc1ccccc1)CC2`, for which the cytotoxicity at 70.5 h is -15.7%.

For `Cc1cc(N2CCC3(CCC(=O)N(CC4CC4)C3)CC2)ncn1`, the cytotoxicity at 70.5 h is -7.85%.

In the case of `COCCCNC(=O)CN(C)C(=O)c1ccc(OC)cc1O`, the cytotoxicity at 70.5 h was -5.57%.

For `O=C(CC1CCCO1)N1CCCN(c2cccnn2)CC1` (stereo unspecified), the cytotoxicity at 70.5 h was -3.32%.

With `CNC(=O)CCc1cc(C)nc(C2CCN(c3cnccn3)CC2)c1`, the cytotoxicity at 70.5 h amounted to 0.777%.

On to `O=C(CN1CCOC1=O)N(Cc1ccccc1)Cc1nccs1`, for which the cytotoxicity at 70.5 h was -14.3%.

`CCCn1nnc(NCc2ccccc2OCc2ccc(Cl)cc2)n1`: the cytotoxicity at 70.5 h is -7.74%.

For `COCC(=O)N1CCC2(CCN(Cc3cccnc3)C2)CC1`, the cytotoxicity at 70.5 h is -7.11%.

As to `O=C(Cc1cccs1)NCc1ccnc(OC2CCOCC2)c1`, the cytotoxicity at 70.5 h was -6.12%.

On to `CC(C)c1nn(C)c(N(C)C)c1CNC1CCCOc2ccccc21` (stereo unspecified), for which the cytotoxicity at 70.5 h turned out to be 31.4%.

Turning to `CCc1cnccc1C(=O)NC1CCN(C(=O)C2CCCCC2)CC1`, the cytotoxicity at 70.5 h is -8.95%.

As to `COc1cccc2c3c(c(=O)n(C)c12)CCC(C)(C)O3`, the cytotoxicity at 70.5 h is -10.4%.

In the case of `CCN1CCN(C(=O)c2scnc2C)CC1`, the cytotoxicity at 70.5 h stood at 18.9%.

Regarding `Cc1noc(C)c1CNc1ccc2nc(C3CC3)sc2c1`, the cytotoxicity at 70.5 h is -1.96%.

Turning to `c1cnn(CCNCCCOc2ccc3c(c2)OCO3)c1`, the cytotoxicity at 70.5 h is 0.993%.

In the case of `CCCn1[nH]cc/c1=N\C(=O)CN1CCC[C@H]1CO`, the cytotoxicity at 70.5 h stood at 2.76%.

With `Cc1cc2c(N)nc(=O)n(CC(=O)Nc3ccccc3)c2s1`, the cytotoxicity at 70.5 h worked out at 8.01%.

For `Cc1ccc2c(c1)C(=O)NCC1(CCN(C(=O)c3cnccn3)CC1)O2`, the cytotoxicity at 70.5 h is -11%.

For the compound `O=C1CC(c2cccnc2)c2c(c(C(=O)O)cn2-c2ccccc2F)N1` (stereo unspecified), the cytotoxicity at 70.5 h is -13.2%.

As for `CC(C(=O)Nc1cccc(C(F)(F)F)c1)N(C)CCN1CCOCC1` (stereo unspecified), the cytotoxicity at 70.5 h is -8.82%.

On to `c1coc(-c2noc(CN3CCC(c4ccn[nH]4)CC3)n2)c1`, for which the cytotoxicity at 70.5 h was -8.33%.

With `O=c1[nH]nc(CNc2ncc(Br)cn2)[nH]1`, the cytotoxicity at 70.5 h was -2.47%.

With `O=C(CCN1CCCC(CO)(CC2CC2)C1)NC1CCCCC1` (stereo unspecified), the cytotoxicity at 70.5 h was -25.2%.

Regarding `CC1CCN(C)c2ccccc2N1C(=O)c1ccc(=O)n(C)n1` (stereo unspecified), the cytotoxicity at 70.5 h was -5.36%.

Take `COc1cc(CN2CCCC23CCN(c2ccccn2)CC3)ccc1F`: the cytotoxicity at 70.5 h was -0.0865%.

Take `CCc1nc(CN(C)CC(=O)OC(C)(C)C)cs1`: the cytotoxicity at 70.5 h was -4.57%.

Regarding `CCOc1cc2c(cc1CCC(=O)O)CCC2`, the cytotoxicity at 70.5 h was determined as 7.85%.

Turning to `O=C1CN(c2ccc(CNC(=O)NCCO)cc2)CCN1`, the cytotoxicity at 70.5 h is -5.73%.

As to `Cc1ccc(CN2CCC3(CCCN3S(C)(=O)=O)CC2)s1`, the cytotoxicity at 70.5 h is -11.8%.

Take `c1ccc2oc(CN3CCCC3c3noc(C4CC4)n3)nc2c1` (stereo unspecified): the cytotoxicity at 70.5 h was -11.3%.

In the case of `O=C1COC2(CCN(Cc3ccoc3)CC2)CN1`, the cytotoxicity at 70.5 h is -30.5%.

On to `CNC(=O)N1CCCCC1c1nnc2n1CCCC2` (stereo unspecified), for which the cytotoxicity at 70.5 h is -0.585%.

Take `Nc1ncccc1CN1C[C@@H]2CC[C@H](C1)N(CC1CC1)C2=O`: the cytotoxicity at 70.5 h turned out to be 28%.

As to `O=C(c1ccc(Cn2ccccc2=O)o1)N1CCSCC1`, the cytotoxicity at 70.5 h is -8.03%.

`Cc1cc(C(=O)N(CCN(C)C)Cc2ccc(Cl)cc2)no1`: the cytotoxicity at 70.5 h is -0.353%.

Consider `CC(C)NC(=O)CN(C)CC(=O)/N=c1/cc[nH]n1C(C)C1CC1` (stereo unspecified), for which the cytotoxicity at 70.5 h came out at 34.2%.

In the case of `O=C(CN1C(=O)CCC1=O)N1Cc2cncnc2C1`, the cytotoxicity at 70.5 h was -2.85%.

For `Cc1ccsc1C(O)CNC(=O)Cc1ccc(F)cc1` (stereo unspecified), the cytotoxicity at 70.5 h worked out at 25%.

`Cc1n[nH]c(C)c1CNC(=O)N(Cc1ccccc1)CC(C)(C)O`: the cytotoxicity at 70.5 h was -3.61%.

As for `CN(C)c1ccc(NC(=O)N2CCCCCC2c2ccncc2)cn1` (stereo unspecified), the cytotoxicity at 70.5 h is -10.6%.

On to `NCC(=O)N1CCCC1c1n[nH]cc1-c1ccccc1F` (stereo unspecified), for which the cytotoxicity at 70.5 h was 25.4%.

Regarding `c1sc(C2CCCCC2)nc1CN1CCn2c(nnc2C2CC2)C1`, the cytotoxicity at 70.5 h was -3.37%.

For the compound `Cc1nn(C)c(C)c1CCn1cncc1-c1ccc2c(c1)CC(C)N2C` (stereo unspecified), the cytotoxicity at 70.5 h was determined as 4.43%.

On to `COCCCN1CC2(CCCN(c3ncnc4[nH]cnc34)C2)CCC1=O` (stereo unspecified), for which the cytotoxicity at 70.5 h is -6.06%.

Regarding `CN(Cc1cnn(C)c1)C(=O)NCc1cc(Br)cs1`, the cytotoxicity at 70.5 h was -2.54%.

Turning to `Cc1nc[nH]c1CN1CCN(C(=O)C2CC2)[C@H]2CS(=O)(=O)C[C@H]21`, the cytotoxicity at 70.5 h is -12.6%.

`COCCN1CCO[C@H]2CN(C(=O)c3cccs3)C[C@H]21`: the cytotoxicity at 70.5 h was -7.52%.

Take `CC(=O)N1CCCC1CCc1ccc(Cl)nn1` (stereo unspecified): the cytotoxicity at 70.5 h is -2.45%.

Regarding `CCc1ccc(CN2CCC3(CC2)CNC(=O)CO3)o1`, the cytotoxicity at 70.5 h is -3.42%.

`COCC1CC2(CCN(C(N)=O)CC2)CN1Cc1csc(C)n1` (stereo unspecified): the cytotoxicity at 70.5 h was -3.74%.

For `O=C(Nc1ccc(F)cc1F)N(CCC(F)(F)F)C[C@H](O)CO`, the cytotoxicity at 70.5 h was -12.9%.

Regarding `O=C(Nc1c(N2CCCC2)cccc1N1CCCC1)c1cnsn1`, the cytotoxicity at 70.5 h is -16%.

Take `CN(Cc1cccc(F)c1)C(=O)CS(=O)(=O)Cc1ccc(Cl)c(Cl)c1`: the cytotoxicity at 70.5 h is -11.2%.

With `O=C(NCCN1CCOCC1)N1CCN(c2ccccc2)CC1`, the cytotoxicity at 70.5 h was -10.1%.

In the case of `Cn1c(=O)n(C)c2nc(Br)c(CC(=O)c3ccccc3)n2c1=O`, the cytotoxicity at 70.5 h is -4.55%.

For `CN1C(=O)C2(CCCN(C(=O)c3cccnc3O)C2)c2ccccc21` (stereo unspecified), the cytotoxicity at 70.5 h is 21%.

As for `CCN1Cc2c(C(=O)NC(C)C(C)C)ncn2-c2ccccc2S1(=O)=O` (stereo unspecified), the cytotoxicity at 70.5 h was found to be 6.35%.

In the case of `CN(C(=O)Cn1nc(-c2ccc(Br)cc2)ccc1=O)C1CCS(=O)(=O)C1` (stereo unspecified), the cytotoxicity at 70.5 h is -22.4%.

For `COCCOCCCC(=O)N1CCC(Cc2ccccc2OC)CC1`, the cytotoxicity at 70.5 h is -10.9%.
